This data set is described as follows: UV absorption: molar extinction coefficient in methanol. Type of data set: physicochemical. The note with it: at λmax 310 nm in methanol.

The values that follow come from patent US7205436B2, “Process for manufacture of quaternary ammonium tosylate salts of cinnamidoalkylamines and / or benzamidoalkylamines” (Galaxy Surfactants Limited, priority 2003, dated 2007).

On to `CCCCCCCCCCCC[N+](C)(C)CCCNC(=O)C=Cc1ccc(OC)cc1.Cc1ccc(S(=O)(=O)[O-])cc1` [Example I, p-methoxy cinnamidopropyldimethyllauryl ammonium tosylate], for which the “molar extinction coefficient, ε” value was 25,000.
